Laboratory results from paper PMC10958117, “G-site residue S67 is involved in the fungicide-degrading activity of a tau class glutathione S-transferase from Carica papaya” (The Journal of Biological Chemistry, 2024).

Key:
[1] = biological target: T1, tau class glutathione S-transferase from Carica papaya (TCpGST) (Carica papaya, UniProt O49821); assay: HPLC degradation assay ([…] after […] h); S67A inactive; assay type: biochemical; set-up: gene PGST1; full-length ORF (657 bp), C-terminal His6, pET-30a, E. coli BL21(DE3), Ni-NTA purified; details: 120 min
[2] = biological target: T1, tau class glutathione S-transferase from Carica papaya (TCpGST); assay: as above; assay type: biochemical; set-up: gene PGST1; details: 120 min

T1 sequence (O49821 1-218): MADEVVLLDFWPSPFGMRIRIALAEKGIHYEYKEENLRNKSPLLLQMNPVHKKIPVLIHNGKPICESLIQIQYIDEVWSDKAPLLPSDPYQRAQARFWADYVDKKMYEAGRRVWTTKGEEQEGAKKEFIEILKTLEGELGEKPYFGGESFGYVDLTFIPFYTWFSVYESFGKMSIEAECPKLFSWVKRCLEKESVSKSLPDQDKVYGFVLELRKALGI

SMILES | % [1] [%] | % [2] [%]
N#Cc1c(Cl)c(Cl)c(Cl)c(C#N)c1Cl [compound 11, chlorothalonil] | 26 | 
c1ccc2[nH]c(-c3cscn3)nc2c1 [compound 16, thiabendazole] |  | 69
